PMC8880997, “Structure and ion-release mechanism of PIB-4-type ATPases” (eLife, 2021)

Legend:
[1] = target: T1, SsZntA (Shigella sonnei, UniProt Q3YW59); assay: Baginski ATPase assay (Pi release) in lipid-detergent; type: biochemical; details: 5 mM ATP, Zn2+ or Cd2+, 5 mM MgCl2, Tris-HCl pH 7.5, 37 °C; KCl titration
T1 construct: gene zntA; purified as in Wang et al., 2014
T1 sequence (Q3YW59 1-732): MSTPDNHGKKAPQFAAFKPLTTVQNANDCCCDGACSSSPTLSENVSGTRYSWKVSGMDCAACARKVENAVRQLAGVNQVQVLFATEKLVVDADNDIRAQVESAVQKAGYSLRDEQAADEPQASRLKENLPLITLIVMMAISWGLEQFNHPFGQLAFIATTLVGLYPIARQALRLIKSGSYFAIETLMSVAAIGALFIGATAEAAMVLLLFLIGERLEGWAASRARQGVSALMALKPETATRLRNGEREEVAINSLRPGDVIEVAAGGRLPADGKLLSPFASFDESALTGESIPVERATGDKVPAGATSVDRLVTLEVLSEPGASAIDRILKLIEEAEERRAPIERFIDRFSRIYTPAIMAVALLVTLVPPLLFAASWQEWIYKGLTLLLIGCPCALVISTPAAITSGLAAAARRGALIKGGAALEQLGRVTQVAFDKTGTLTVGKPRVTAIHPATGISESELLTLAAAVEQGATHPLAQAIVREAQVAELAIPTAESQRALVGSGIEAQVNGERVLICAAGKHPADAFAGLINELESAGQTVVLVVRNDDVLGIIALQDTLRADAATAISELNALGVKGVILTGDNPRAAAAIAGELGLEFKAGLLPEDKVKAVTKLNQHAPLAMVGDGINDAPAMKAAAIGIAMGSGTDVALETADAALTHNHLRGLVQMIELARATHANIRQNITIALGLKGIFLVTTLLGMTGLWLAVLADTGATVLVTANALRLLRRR

[2] = target: T2, sCoaT (Sulfitobacter sp. NAS-14.1, UniProt A0ABF7PH95); assay: X-ray crystallography, […]-3.[…] Å; type: binding; design: gene NAS141_02821; residues before about 40-47 not modelled; details: phosphate analogue at the phosphorylation site; formed from AlCl3 and NaF with EGTA, metal-free; E2.Pi state
T2 sequence (A0ABF7PH95 1-682): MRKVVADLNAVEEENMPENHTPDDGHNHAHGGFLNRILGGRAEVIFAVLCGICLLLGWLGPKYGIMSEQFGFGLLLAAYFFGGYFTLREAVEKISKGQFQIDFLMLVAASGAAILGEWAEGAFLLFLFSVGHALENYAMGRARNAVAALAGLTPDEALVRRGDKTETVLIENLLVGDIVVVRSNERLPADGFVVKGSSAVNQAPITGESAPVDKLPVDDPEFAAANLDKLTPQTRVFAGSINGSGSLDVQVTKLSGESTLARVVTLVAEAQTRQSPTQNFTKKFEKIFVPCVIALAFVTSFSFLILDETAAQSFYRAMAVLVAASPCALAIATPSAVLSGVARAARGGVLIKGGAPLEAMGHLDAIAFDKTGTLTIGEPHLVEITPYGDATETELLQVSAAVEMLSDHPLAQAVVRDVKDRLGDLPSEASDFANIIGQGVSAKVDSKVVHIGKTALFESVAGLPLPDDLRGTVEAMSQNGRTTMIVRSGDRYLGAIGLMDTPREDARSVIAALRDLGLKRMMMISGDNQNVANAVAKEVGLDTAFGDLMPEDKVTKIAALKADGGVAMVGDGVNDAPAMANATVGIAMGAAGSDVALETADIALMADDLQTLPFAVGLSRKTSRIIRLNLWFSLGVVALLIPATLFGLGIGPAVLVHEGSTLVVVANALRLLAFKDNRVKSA

[3] = target: T2, sCoaT; design: gene NAS141_02821; details: phosphate analogue at the phosphorylation site; formed from BeSO4 and NaF with EGTA, metal-free; late E2P state

Nc1ncnc2c1ncn2[C@@H]1O[C@H](COP(=O)(O)OP(=O)(O)OP(=O)(O)O)[C@@H](O)[C@H]1O [ATP]
Baginski ATPase assay (Pi release) in lipid-detergent [1]: Functional ATPase assay in lipid–detergent solution of sCoaT (wild-type and D601K forms) as well as SsZntA

[F][Al-]([F])([F])[F] [AlF4^−]
X-ray crystallography, 3.2-3.3 Å [2]: structures of sCoaT in metal-free conditions supplemented with two different phosphate analogues, BeF3^− and AlF4^−

[F][Be-]([F])[F] [BeF3^−]
X-ray crystallography, 3.1 Å [3]: structures of sCoaT in metal-free conditions supplemented with two different phosphate analogues, BeF3^− and AlF4^−
